{"source": "patent US12077555B2", "about": "“STAT degraders and uses thereof” (Kymera Therapeutics, Inc., priority 2019, dated 2024)"}
{"biological_target": "STAT3 (Homo sapiens, UniProt P40763)", "sequence (P40763 whole entry)": "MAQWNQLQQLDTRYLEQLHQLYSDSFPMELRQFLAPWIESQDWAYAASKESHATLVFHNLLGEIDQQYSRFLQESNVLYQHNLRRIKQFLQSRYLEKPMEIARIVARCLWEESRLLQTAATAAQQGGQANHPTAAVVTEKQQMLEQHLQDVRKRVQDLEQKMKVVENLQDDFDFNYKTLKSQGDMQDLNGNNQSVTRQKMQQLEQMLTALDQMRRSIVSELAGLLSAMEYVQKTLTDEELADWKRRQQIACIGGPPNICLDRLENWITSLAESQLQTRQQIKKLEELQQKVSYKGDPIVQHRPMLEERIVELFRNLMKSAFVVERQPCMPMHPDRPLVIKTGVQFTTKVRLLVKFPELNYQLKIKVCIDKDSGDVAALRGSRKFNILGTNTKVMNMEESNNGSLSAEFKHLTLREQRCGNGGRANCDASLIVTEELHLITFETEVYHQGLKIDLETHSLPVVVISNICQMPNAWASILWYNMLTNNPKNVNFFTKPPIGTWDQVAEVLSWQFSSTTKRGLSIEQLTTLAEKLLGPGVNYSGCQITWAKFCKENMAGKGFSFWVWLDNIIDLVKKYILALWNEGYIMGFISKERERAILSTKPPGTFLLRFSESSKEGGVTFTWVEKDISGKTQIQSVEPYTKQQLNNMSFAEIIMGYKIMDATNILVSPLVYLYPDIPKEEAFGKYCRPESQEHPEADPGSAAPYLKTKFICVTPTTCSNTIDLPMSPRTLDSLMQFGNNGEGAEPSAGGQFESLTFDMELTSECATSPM", "assay": "STAT3 HiBiT degradation assay in transfected A549 cells", "format": "cell-based", "design": "expressed in transfected cells; host or cells: A549", "conditions": "A549, 24 h; read-out: STAT3 HiBiT A549 degradation 24 h: Average external-Abs DC50", "in_short": "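Transfected A549 cells (~2000/well) plated 24 h, then treated 24 h at 37 °C, 5% CO2 with a 3-fold, 10-point compound dilution. HiBiT lytic luminescence read after 10 min at room temperature; remaining STAT3 normalized to negative and positive controls, four-parameter fit. DC50 binned A <0.01, B 0.01–0.1, C 0.1–1.0, D >1.0 µM.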", "units": {"DC50": "nM"}}
{"smiles": "C/C(=C\\C(=O)N[C@H]1CN(C(=O)CCCCCCc2ccc3c(c2)n(C)c(=O)n3C2CCC(=O)NC2=O)CC[C@H]2CC[C@@H](C(=O)N[C@@H](CCC(N)=O)C(=O)NC(c3ccccc3)c3ccccc3)N2C1=O)c1cccc(C(F)(F)P(=O)(O)O)c1", "note": "(stereo partly drawn) [Compound I-143, [3-[(1E)-1-[[(8S,10aR)-8-[[(1S)-3-carbamoyl-1-(diphenylmethylcarbamoyl)propyl]carbamoyl]-3-[7-[1-(2,6-dioxopiperidin-3-yl)-3-methyl-2-oxo-1,3-benzodiazol-5-yl]heptanoyl]-6-oxo-octahydropyrrolo[1,2-a][1,5]diazocin-5-yl]carbamoyl]prop-1-en-2-yl]phenyl]difluoromethylphosphonic acid]", "DC50": "> 1000"}
{"smiles": "Cc1ncsc1-c1ccc(CNC(=O)[C@@H]2C[C@@H](O)CN2C(=O)[C@@H](NC(=O)Cc2cccc(-c3ccc(CO[C@H](C)[C@H](CCC(N)=O)NC(=O)[C@@H]4Cc5cccc6c5N4C(=O)[C@@H](NC(=O)c4cc5cc(C(=O)P(=O)(O)O)ccc5[nH]4)CC6)cc3)c2)C(C)(C)C)cc1", "note": "[Compound I-145, 2-[[(2S,11S)-2-[[(3S,4R)-1-carbamoyl-4-[[3'-([[(2S)-1-[(2S,4R)-4-hydroxy-2-([[4-(4-methyl-1,3-thiazol-5-yl)phenyl]methyl]carbamoyl)pyrrolidin-1-yl]-3,3-dimethyl-1-oxobutan-2-yl]carbamoyl]methyl)-[1,1'-biphenyl]-4-yl]methoxy]pentan-3-yl]carbamoyl]-12-oxo-1-azatricyclo[6.4.1.0^[4,13]]trideca-4(13),5,7-trien-11-yl]carbamoyl]-1H-indole-5-carbonylphosphonic acid]", "DC50": "> 1000"}
{"smiles": "Cc1ncsc1-c1ccc(CNC(=O)[C@@H]2C[C@@H](O)CN2C(=O)[C@@H](NC(=O)[C@H]2C[C@H](Cc3ccc(CO[C@H](C)[C@H](CCC(N)=O)NC(=O)[C@@H]4Cc5cccc6c5N4C(=O)[C@@H](NC(=O)c4cc5cc(C(=O)P(=O)(O)O)ccc5[nH]4)CC6)cc3)C2)C(C)(C)C)cc1", "note": "[Compound I-146, diammonium 2-[[(2S,11S)-2-[[(3S,4R)-1-carbamoyl-4-[(4-[[(1r,3r)-3-[[(2S)-1-[(2S,4R)-4-hydroxy-2-([[4-(4-methyl-1,3-thiazol-5-yl)phenyl]methyl]carbamoyl)pyrrolidin-1-yl]-3,3-dimethyl-1-oxobutan-2-yl]carbamoyl]cyclobutyl]methyl]phenyl)methoxy]pentan-3-yl]carbamoyl]-12-oxo-1-azatricyclo[6.4.1.0^[4,13]]trideca-4(13),5,7-trien-11-yl]carbamoyl]-1H-indole-5-carbonylphosphonate]", "DC50": "100 to 1000"}
{"smiles": "Cc1ncsc1-c1ccc(CNC(=O)[C@@H]2C[C@@H](O)CN2C(=O)[C@@H](NC(=O)CCCCCCCC(=O)N2CC[C@H]3CC[C@@H](C(=O)N[C@@H](CCC(N)=O)C(=O)NC(c4ccccc4)c4ccccc4)N3C(=O)[C@@H](NC(=O)c3cc4cc(C(=O)P(=O)(O)O)ccc4[nH]3)C2)C(C)(C)C)cc1", "note": "[Compound I-147]", "DC50": "> 1000"}
{"smiles": "Cc1ncsc1-c1ccc([C@H](C)NC(=O)[C@@H]2C[C@H](O)CN2C(=O)[C@@H](NC(=O)CCCCc2ccc(CO[C@H](C)[C@H](CCC(N)=O)NC(=O)[C@@H]3Cc4cccc5c4N3C(=O)[C@@H](NC(=O)c3cc4cc(C(=O)P(=O)(O)O)ccc4[nH]3)CC5)cc2)C(C)(C)C)cc1", "note": "[Compound I-149, diammonium 2-[[(2S,11S)-2-[[(3S,4R)-1-carbamoyl-4-[[4-(4-[[(2S)-1-[(2S,4S)-4-hydroxy-2-[[(1S)-1-[4-(4-methyl-1,3-thiazol-5-yl)phenyl]ethyl]carbamoyl]pyrrolidin-1-yl]-3,3-dimethyl-1-oxobutan-2-yl]carbamoyl]butyl)phenyl]methoxy]pentan-3-yl]carbamoyl]-12-oxo-1-azatricyclo [6.4.1.0^[4,13]]trideca-4(13),5,7-trien-11-yl]carbamoyl]-1H-indole-5-carbonylphosphonate]", "DC50": "> 1000"}
{"smiles": "CN1C(=O)CCC(n2c(=O)n(C)c3cc(CCCCCCC(=O)N4CC[C@H]5CC[C@@H](C(=O)N[C@@H](CCC(N)=O)C(=O)NC(c6ccccc6)c6ccccc6)N5C(=O)[C@@H](NC(=O)c5cc6cc(C(=O)P(=O)(O)O)ccc6[nH]5)C4)ccc32)C1=O", "note": "(stereo partly drawn) [Compound I-150, 2-[[(5S,8S,10aR)-8-[[(1S)-3-carbamoyl-1-(diphenylmethylcarbamoyl)propyl]carbamoyl]-3-[7-[3-methyl-1-(1-methyl-2,6-dioxopiperidin-3-yl)-2-oxo-1,3-benzodiazol-5-yl]heptanoyl]-6-oxo-octahydropyrrolo[1,2-a][1,5]diazocin-5-yl]carbamoyl]-1H-indole-5-carbonylphosphonic acid]", "DC50": "> 1000"}
{"smiles": "Cc1ncsc1-c1ccc(CNC(=O)[C@@H]2C[C@@H](O)CN2C(=O)[C@@H](NC(=O)NCCCc2ccc(CO[C@H](C)[C@H](CCC(N)=O)NC(=O)[C@@H]3Cc4cccc5c4N3C(=O)[C@@H](NC(=O)c3cc4cc(C(=O)P(=O)(O)O)ccc4[nH]3)CC5)cc2)C(C)(C)C)cc1", "note": "[Compound I-151, 2-[[(2S,11S)-2-[[(3S,4R)-1-carbamoyl-4-([4-[3-([[(2S)-1-[(2S,4R)-4-hydroxy-2-([[4-(4-methyl-1,3-thiazol-5-yl)phenyl]methyl]carbamoyl)pyrrolidin-1-yl]-3,3-dimethyl-1-oxobutan-2-yl]carbamoyl]amino)propyl]phenyl]methoxy)pentan-3-yl]carbamoyl]-12-oxo-1-azatricyclo[6.4.1.0^[4,13]]trideca-4(13),5,7-trien-11-yl]carbamoyl]-1H-indole-5-carbonylphosphonic acid]", "DC50": "100 to 1000"}
{"smiles": "Cc1ncsc1-c1ccc(CNC(=O)[C@@H]2C[C@@H](O)CN2C(=O)[C@@H](NC(=O)CCCCCc2ccc(OC[C@H](CCC(N)=O)NC(=O)[C@@H]3Cc4cccc5c4N3C(=O)[C@@H](NC(=O)c3cc4cc(C(=O)P(=O)(O)O)ccc4[nH]3)CC5)cc2)C(C)(C)C)cc1", "note": "[Compound I-152, 2-[[(2S,11S)-2-[[(2S)-4-carbamoyl-1-[4-(5-[[(2S)-1-[(2S,4R)-4-hydroxy-2-([[4-(4-methyl-1,3-thiazol-5-yl)phenyl]methyl]carbamoyl)pyrrolidin-1-yl]-3,3-dimethyl-1-oxobutan-2-yl]carbamoyl]pentyl)phenoxy]butan-2-yl]carbamoyl]-12-oxo-1-azatricyclo [6.4.1.0^[4,13]]trideca-4(13),5,7-trien-11-yl]carbamoyl]-1H-indole-5-carbonylphosphonic acid]", "DC50": "> 1000"}
{"smiles": "Cc1ncsc1-c1ccc(CNC(=O)[C@@H]2C[C@@H](O)CN2C(=O)[C@@H](NC(=O)CCCCCCCCCOC[C@H](CCC(N)=O)NC(=O)[C@@H]2Cc3cccc4c3N2C(=O)[C@@H](NC(=O)c2cc3cc(C(=O)P(=O)(O)O)ccc3[nH]2)CC4)C(C)(C)C)cc1", "note": "[Compound I-153, 2-[[(2S,11S)-2-[[(2S)-4-carbamoyl-1-[(9-[[(2S)-1-[(2S,4R)-4-hydroxy-2-([[4-(4-methyl-1,3-thiazol-5-yl)phenyl]methyl]carbamoyl)pyrrolidin-1-yl]-3,3-dimethyl-1-oxobutan-2-yl]carbamoyl]nonyl)oxy]butan-2-yl]carbamoyl]-12-oxo-1-azatricyclo[6.4.1.0^[4,13]]trideca-4(13),5,7-trien-11-yl]carbamoyl]-1H-indole-5-carbonylphosphonic acid]", "DC50": "> 1000"}
{"smiles": "Cc1ncsc1-c1ccc(CNC(=O)[C@@H]2C[C@@H](O)CN2C(=O)[C@@H](NC(=O)CCCCCCCCOC[C@H](CCC(N)=O)NC(=O)[C@@H]2Cc3cccc4c3N2C(=O)[C@@H](NC(=O)c2cc3cc(C(=O)P(=O)(O)O)ccc3[nH]2)CC4)C(C)(C)C)cc1", "note": "[Compound I-154]", "DC50": "> 1000"}
